Source: patent publication US20020173541A1, “Arthropod-controlling composition” (SUMITOMO CHEMICAL COMPANY, LIMITED, priority 2001, published 2002)

Tested on: adult German cockroaches
Experiment: Knock-down test: oil solution sprayed on adult German cockroaches
Format: in vivo, Blattella germanica (German cockroach)
Method: According to Production example 7, each of the 0.5% oil solutions of The Pyrone Compound and Reference compound 1 was prepared. A square of paper (side: 20 cm) was covered on the iron net set on the bottom of the metallic chamber (46 cm×46 cm, 70 cm in height). A container (8.75 cm in diameter, 7.5 cm in height, having 16-mesh net at the bottom and spreading butter on the wall for preventing escape) was set on the paper. In the container, ten (5 males and 5 females) adult German cockroaches were released. By means of spray gun, 1.5 ml of the above oil solution was applied to the test insects at pressure of 4.1×10^4 Pa from the upper part of the chamber. The container was taken out of the chamber 30 seconds after spraying and the test insects were transferred to a plastic cup. Two minutes after spraying, the knocked-down cockroaches were counted. According to Production example 7, each of the 0.25% oil solutions of The Pyrone Compound and Reference compounds 2 and 3 was prepared. The same procedures as Test Example 1 gave the knock-down percentages and KT50 values (minutes for knocked-down 50% of cockroaches) in Table 2.

[1] = 0.5% oil solution, 1.5 ml sprayed, knocked-down cockroaches counted two minutes after spraying
[2] = 0.25% oil solution, same procedures as Test Example 1, average of 6 (The Pyrone Compound) or 3 (references) repetitions

Row | Structure (SMILES) | Knock-down percentage (%) [1] [%] | KT50 (minutes for knocked-down 50% of cockroaches) [2] | Knock-down percentage (%) [2] [%]
1 | Cc1cc(O)c(C(=O)C(C)C)c(=O)o1 [Reference compound 1, 4-hydroxy-6-methyl-3-(2-methylpropanoyl)-2-pyrone] | 10 |  | 
2 | Cc1cc(O)c(C(=O)C2CC2)c(=O)o1 [Reference compound 3, 4-hydroxy-6-methyl-3-(cyclopropanecarbonyl) -2-pyrone] |  | more than 10 minutes | 6.7
3 | CCC(CC)C(=O)c1c(O)cc(C)oc1=O [Reference compound 2, 4-hydroxy-6-methyl-3-(2-ethylbutanoyl)-2-pyrone] |  | more than 10 minutes | 0
4 | Cc1cc(O)c(C(=O)CC(C)C)c(=O)o1 [The Pyrone Compound, 4-hydroxy-6-methyl-3-(3-methylbutanoyl)-2-pyrone] | 100 | 0.85 min | 95
